One may read the ED50 as the dose that gives a 50% effect, or the effect in half of the subjects. Higher therefore signals weaker potency.

The text below walks through data of ChEMBL document CHEMBL1129229, “Synthesis and trypanocidal activity of the bis-carba analogue of pentamidine” (1996).

For this experiment, the system named is Mus musculus. Description: Effective dose against Trypanosoma brucei S427/118 infection in mice, administered ip after 24 hr. The class given is functional.

Each structure is given as a SMILES string.

Molecule `N=C(N)c1ccc(CCCCCCCc2ccc(C(=N)N)cc2)cc1` displayed an ED50 of 7.3 mg/kg. As for `N=C(N)c1ccc(OCCCCCOc2ccc(C(=N)N)cc2)cc1` [PENTAMIDINE], the figure is 0.38 mg/kg.
